According to patent publication US8198311B2, “Modulators of glucocorticoid receptor, AP-1, and/or NF-κB activity and use thereof” (Bristol-Myers Squibb Company, priority 2006, dated 2012):
Read-outs that look alike come from different tables or passages of the source.

Assays:
[1] = molecular target: T1, human glucocorticoid receptor (Homo sapiens, UniProt P04150); experiment: Glucocorticoid Receptor Binding Assay (I), fluorescence polarization competitor kit (Fluormone GS Red); settings: purified human recombinant full-length GR
T1 construct: purified human recombinant full-length glucocorticoid receptor (2 nM); purchased Invitrogen Part # 2893
T1 sequence (P04150 1-777): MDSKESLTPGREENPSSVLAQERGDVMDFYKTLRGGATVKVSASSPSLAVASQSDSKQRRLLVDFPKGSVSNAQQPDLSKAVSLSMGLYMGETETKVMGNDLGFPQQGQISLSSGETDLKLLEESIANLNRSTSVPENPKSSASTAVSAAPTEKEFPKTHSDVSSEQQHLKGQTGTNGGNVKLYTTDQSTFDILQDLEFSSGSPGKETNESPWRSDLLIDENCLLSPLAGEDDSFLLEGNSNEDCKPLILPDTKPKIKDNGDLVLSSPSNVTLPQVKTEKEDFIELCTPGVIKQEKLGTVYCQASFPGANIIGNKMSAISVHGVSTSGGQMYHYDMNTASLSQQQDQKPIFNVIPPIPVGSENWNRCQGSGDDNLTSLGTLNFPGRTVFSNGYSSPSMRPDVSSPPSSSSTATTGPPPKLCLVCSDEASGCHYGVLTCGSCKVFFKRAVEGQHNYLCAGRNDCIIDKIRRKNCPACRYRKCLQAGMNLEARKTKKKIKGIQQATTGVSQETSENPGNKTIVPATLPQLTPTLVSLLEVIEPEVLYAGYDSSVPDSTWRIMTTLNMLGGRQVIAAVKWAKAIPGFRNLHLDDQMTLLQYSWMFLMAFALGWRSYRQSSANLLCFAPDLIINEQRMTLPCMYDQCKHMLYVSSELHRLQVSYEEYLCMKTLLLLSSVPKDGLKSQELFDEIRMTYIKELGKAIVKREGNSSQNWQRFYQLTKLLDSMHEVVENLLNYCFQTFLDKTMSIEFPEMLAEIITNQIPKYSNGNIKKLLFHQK
Protocol: In order to assess the affinity of test compounds for the human glucocorticoid receptor, a commercially available kit was used (Glucocorticoid Receptor Competitor Assay Kit, Invitrogen Part # 2893). Briefly, purified human recombinant full-length glucocorticoid receptor (2 nM) was mixed with fluorescently labeled glucocorticoid (1 nM Fluormone GS Red) in the presence or absence of test compound. After two hour incubation at room temperature in the dark, the fluorescence polarization (FP) of the samples was measured. […] Test compounds were analyzed in the concentration range from 8.5E-05 μM to 5 μM.

[2] = test system: AP-1 induced transcriptional activity; experiment: Cellular Transrepressional Assay (AP-1 luciferase reporter in A549 cells, PMA-activated); format: cell-based; settings: pAP-1-Luc, 10 ng/ml PMA, read-out: AP-1 (EC50, nM) (Cellular Transrepression Assay)
Protocol: To measure the ability of test molecules to inhibit AP-1 induced transcriptional activity an A549 cell was utilized which was stably transfected with a plasmid containing 7×AP-1 DNA binding sites (pAP-1-Luc plasmid, Stratagene Co. La Jolla, Calif.) followed by the gene for luciferase. Cells were activated with 10 ng/ml of phorbol myristic acid (PMA) plus or minus test molecules for 7 hours. After 7 hours a luciferase reagent was added to measure luciferase enzymatic activity in the cell. After a 10 minute incubation of luciferase reagent with cells, luminescence was measured in a TopCount luminescence counter. Repression of AP-1 activity was calculated as the percentage decrease in the signal induced by PMA alone. Test molecules were analyzed in the concentration range from 0.1 nM to 40 μM. EC50s were determined by using standard curve fitting methods such as Excel fit (Microsoft Co.).

SMILES | Ki [1] | EC50 ([2]; Homo sapiens, A549, 7 h) | EC50 ([2]; 7 hours)
CC(C)CC(c1ccc2c(cnn2-c2ccc(F)cc2)c1)C(C)(C)CNC(=O)[C@H](O)C(C)(C)C (single isomer, unassigned) [Example 69 diastA, N-(3-(1-(4-fluorophenyl)-1H-indazol-5-yl)-2,2,5-trimethylhexyl)-2-hydroxy-3,3-dimethylbutanamide] | 3.7 nM | > 10000 nM | 
CC(C)CC(c1ccc2c(cnn2-c2ccc(F)cc2)c1)C(C)(C)CNC(=O)[C@@H](O)C(C)(C)C (single isomer, unassigned) [Example 69 diastB, N-(3-(1-(4-fluorophenyl)-1H-indazol-5-yl)-2,2,5-trimethylhexyl)-2-hydroxy-3,3-dimethylbutanamide] | 3.4 nM | > 10000 nM | 
CC(CNC(=O)CC(F)(F)F)C(c1ccccc1)c1ccc2c(cnn2-c2ccc(F)cc2)c1 (single isomer, unassigned) [Example 90A, 3,3,3-trifluoro-N-(3-(1-(4-fluorophenyl)-1H-indazol-5-yl)-2-methyl-3-phenylpropyl)propanamide] | 2.3 nM |  | 52 nM
CC(CNC(=O)CC(F)(F)F)C(c1ccccc1)c1ccc2c(cnn2-c2ccc(F)cc2)c1 (single isomer, unassigned) [Example 90B, 3,3,3-trifluoro-N-(3-(1-(4-fluorophenyl)-1H-indazol-5-yl)-2-methyl-3-phenylpropyl)propanamide] | 21 nM |  | 176 nM
CC(CNC(=O)CC(F)(F)F)C(c1ccccc1)c1ccc2c(cnn2-c2ccc(F)cc2)c1 (single isomer, unassigned) [Example 90C, 3,3,3-trifluoro-N-(3-(1-(4-fluorophenyl)-1H-indazol-5-yl)-2-methyl-3-phenylpropyl)propanamide] | 2.4 nM |  | 7.4 nM
CC(CNS(=O)(=O)CC(F)(F)F)C(c1ccccc1)c1ccc2c(cnn2-c2ccc(F)cc2)c1 (single isomer, unassigned) [Example 91A, 2,2,2-trifluoro-N-(3-(1-(4-fluorophenyl)-1H-indazol-5-yl)-2-methyl-3-phenylpropyl)ethanesulfonamide] | 2.1 nM |  | 5.7 nM
CC(CNS(=O)(=O)CC(F)(F)F)C(c1ccccc1)c1ccc2c(cnn2-c2ccc(F)cc2)c1 (single isomer, unassigned) [Example 91B, 2,2,2-trifluoro-N-(3-(1-(4-fluorophenyl)-1H-indazol-5-yl)-2-methyl-3-phenylpropyl)ethanesulfonamide] | 15 nM |  | 201 nM
CC(CNS(=O)(=O)CC(F)(F)F)C(c1ccccc1)c1ccc2c(cnn2-c2ccc(F)cc2)c1 (single isomer, unassigned) [Example 91C, 2,2,2-trifluoro-N-(3-(1-(4-fluorophenyl)-1H-indazol-5-yl)-2-methyl-3-phenylpropyl)ethanesulfonamide] | 2.8 nM |  | 83 nM
CC(CNS(=O)(=O)CC(F)(F)F)C(c1ccccc1)c1ccc2c(cnn2-c2ccc(F)cc2)c1 (single isomer, unassigned) [Example 91D, 2,2,2-trifluoro-N-(3-(1-(4-fluorophenyl)-1H-indazol-5-yl)-2-methyl-3-phenylpropyl)ethanesulfonamide] | 74 nM |  | 2500 nM
CC(CNC(=O)NC(C)(C)C)C(c1ccccc1)c1ccc2c(cnn2-c2ccc(F)cc2)c1 (single isomer, unassigned) [Example 97A, 1-tert-butyl-3-(3-(1-(4-fluorophenyl)-1H-indazol-5-yl)-2-methyl-3-phenylpropyl)urea] | 4 nM |  | 71 nM
CC(CNC(=O)NC(C)(C)C)C(c1ccccc1)c1ccc2c(cnn2-c2ccc(F)cc2)c1 (single isomer, unassigned) [Example 97B, 1-tert-butyl-3-(3-(1-(4-fluorophenyl)-1H-indazol-5-yl)-2-methyl-3-phenylpropyl)urea] | 43 nM |  | 136 nM
CC(CNC(=O)NC(C)(C)C)C(c1ccccc1)c1ccc2c(cnn2-c2ccc(F)cc2)c1 (single isomer, unassigned) [Example 97C, 1-tert-butyl-3-(3-(1-(4-fluorophenyl)-1H-indazol-5-yl)-2-methyl-3-phenylpropyl)urea] | 3.5 nM |  | 158 nM
CC(C)(CNC(=O)CC(F)(F)F)[C@@H](c1ccccc1)c1ccc2c(cnn2-c2ccc(F)cc2)c1 [(S)-17, (S)-3,3,3-trifluoro-N-(3-(1-(4-fluorophenyl)-1H-indazol-5-yl)-2,2-dimethyl-3-phenylpropyl)-propanamide] | 0.63 nM | 13 nM | 
CC(C)(CNS(=O)(=O)CC(F)(F)F)[C@@H](c1ccccc1)c1ccc2c(cnn2-c2ccc(F)cc2)c1 [Example 18, (S)-2,2,2-trifluoro-N-(3-(1-(4-fluorophenyl)-1H-indazol-5-yl)-2,2-dimethyl-3-phenylpropyl)ethanesulfonamide] | 1.1 nM | 25 nM | 
CC(C)CC(c1ccc2c(cnn2-c2ccc(F)cc2)c1)C(C)(C)CNC(=O)NCC(C)(C)C (stereo not shown) [Example 35, 1-(3-(1-(4-fluorophenyl)-1H-indazol-5-yl)-2,2,5-trimethylhexyl)-3-neopentylurea] | 2.3 nM | 159 nM | 
CC(C)CC(c1ccc2c(cnn2-c2ccc(F)cc2)c1)C(C)(C)CNC(=O)NC1CCOCC1 (stereo not shown) [Example 37, 1-(3-(1-(4-fluorophenyl)-1H-indazol-5-yl)-2,2,5-trimethylhexyl)-3-(tetrahydro-2H-pyran-4-yl)urea] | 5.8 nM | > 10000 nM | 
CC(C)CC(c1ccc2c(cnn2-c2ccc(F)cc2)c1)C(C)(C)CNC(=O)NC1(C)CCS(=O)(=O)C1 (stereo not shown) [Example 38] | 6.3 nM | > 10000 nM | 
CC(C)CC(c1ccc2c(cnn2-c2ccc(F)cc2)c1)C(C)(C)CNC(=O)N1CCC[C@@H]1CO (stereo partly drawn) [Example 39, (2R)-N-(3-(1-(4-fluorophenyl)-1H-indazol-5-yl)-2,2,5-trimethylhexyl)-2-(hydroxymethyl)pyrrolidine-1-carboxamide] | 3.2 nM | > 10000 nM | 
CC(C)CC(c1ccc2c(cnn2-c2ccc(F)cc2)c1)C(C)(C)CNC(=O)N1CC(N)C1 (stereo not shown) [Example 40, 3-amino-N-(3-(1-(4-fluorophenyl)-1H-indazol-5-yl)-2,2,5-trimethylhexyl)azetidine-1-carboxamide] | 11 nM | > 10000 nM | 
CC(C)CC(c1ccc2c(cnn2-c2ccc(F)cc2)c1)C(C)(C)CNC(=O)NC(C)(C)CN (stereo not shown) [Example 41, 1-(1-amino-2-methylpropan-2-yl)-3-(3-(1-(4-fluorophenyl)-1H-indazol-5-yl)-2,2,5-trimethylhexyl)urea] | 8.1 nM | > 10000 nM | 
CC(C)CC(c1ccc2c(cnn2-c2ccc(F)cc2)c1)C(C)(C)CNC(=O)NC1(CO)CCCC1 (stereo not shown) [Example 42, 1-(3-(1-(4-fluorophenyl)-1H-indazol-5-yl)-2,2,5-trimethylhexyl)-3-(1-(hydroxymethyl)cyclopentyl)urea] | 2.4 nM | 682 nM | 
CC(C)CC(c1ccc2c(cnn2-c2ccc(F)cc2)c1)C(C)(C)CNC(=O)N[C@H](C)C(C)(C)C (stereo partly drawn) [Example 44, 1-((R)-3,3-dimethylbutan-2-yl)-3-(3-(1-(4-fluorophenyl)-1H-indazol-5-yl)-2,2,5-trimethylhexyl)urea] | 2.7 nM | 54 nM | 
C#CC(C)(C)NC(=O)NCC(C)(C)C(CC(C)C)c1ccc2c(cnn2-c2ccc(F)cc2)c1 (stereo not shown) [Example 72, 1-(3-(1-(4-fluorophenyl)-1H-indazol-5-yl)-2,2,5-trimethylhexyl)-3-(2-methylbut-3-yn-2-yl)urea] | 55 nM |  | 
CC(C)(CNC(=O)CC(F)(F)F)C1(c2ccc3c(cnn3-c3ccc(F)cc3)c2)CCOCC1 [Example 113, 3,3,3-Trifluoro-N-(2-(4-(1-(4-fluorophenyl)-1H-indazol-5-yl)tetrahydro-2H-pyran-4-yl)-2-methylpropyl)propanamide] | 22 nM |  | 
